Results: patent publication US8618151B2, “Inhibitors of HCV NS5A” (Presidio Pharmaceuticals, Inc., priority 2008, dated 2013)

test system: HCV genotype 1b replicon; experiment: HCV replicon assay (1b_Huh-Luc/Neo-ET cell line, luciferase readout); assay type: cell-based; conditions: Hepatitis C virus, Huh-7, 72 h, read-out: Inhibition of HCV genotype 1b
Procedure: Biological activity of the compounds of the invention was determined using an HCV replicon assay. The 1b_Huh-Luc/Neo-ET cell line persistently expressing a bicistronic genotype 1b replicon in Huh 7 cells was obtained from ReBLikon GMBH. This cell line was used to test compound inhibition using luciferase enzyme activity readout as a measurement of compound inhibition of replicon levels.
On Day 1 (the day after plating), each compound is added in triplicate to the cells. Plates incubated for 72 h prior to running the luciferase assay. Enzyme activity was measured using a Bright-Glo Kit (cat. number E2620) manufactured by Promega Corporation. The following equation was used to generate a percent control value for each compound. % Control=(Average Compound Value/Average Control)*100
The EC50 value was determined using GraphPad Prism and the following equation: Y=Bottom+(Top−Bottom)/1+10^((Log IC50−X)*HillSlope))
EC50 values of compounds are repeated several times in the replicon assay.

CNC(=O)N[C@@H](C(=O)N1CCC[C@H]1c1nc(-c2ccc3cc(-c4ccc(-c5cnc([C@@H]6CCCN6C(=O)[C@@H](NC(=O)OC)C(C)C)[nH]5)cc4)ccc3c2)c[nH]1)c1ccccc1 [14s] and CNC(=O)N[C@@H](C(=O)N1CCC[C@H]1c1ncc(-c2ccc(-c3ccc4cc(-c5c[nH]c([C@@H]6CCCN6C(=O)[C@@H](NC(=O)OC)C(C)C)n5)ccc4c3)cc2)[nH]1)c1ccccc1 [Compound 18] cannot be ordered by EC50: under 1 nM for the first, under 1 nM for the second.

COC(=O)N[C@H](C(=O)N1CCC[C@H]1c1ncc(-c2ccc(-c3ccc4cc(-c5c[nH]c([C@@H]6CCCN6C(=O)[C@@H](c6ccccc6)N6CCCC6)n5)ccc4c3)cc2)[nH]1)C(C)C [Compound 9] and COC(=O)N[C@H](C(=O)N1CCC[C@H]1c1nc(-c2ccc3cc(-c4ccc(-c5cnc([C@@H]6CCCN6C(=O)[C@@H](c6ccccc6)N6CCCC6)[nH]5)cc4)ccc3c2)c[nH]1)C(C)C [compound 10] cannot be ordered by EC50: under 1 nM for the first, under 1 nM for the second.

COC(=O)N[C@H](C(=O)N1CCC[C@H]1c1nc(-c2ccc3cc(-c4ccc(-c5cnc([C@@H]6CCCN6C(=O)[C@@H](NC(=O)OC)C(C)C)[nH]5)cc4)ccc3c2)c[nH]1)C(C)C [compound 1] and COC(=O)N[C@@H](C(=O)N1CCC[C@H]1c1nc(-c2ccc3cc(-c4ccc(-c5cnc([C@@H]6CCCN6C(=O)[C@H](NC(=O)OC)C(C)C)[nH]5)cc4)ccc3c2)c[nH]1)C(C)C [compound 2] cannot be ordered by EC50: under 1 nM for the first, under 1 nM for the second.

COC(=O)N[C@H](C(=O)N1CCC[C@H]1c1nc(-c2ccc3cc(-c4ccc(-c5cnc([C@@H]6CCCN6C(=O)[C@@H](NC(=O)OC)[C@@H](C)OC)[nH]5)cc4)ccc3c2)c[nH]1)[C@@H](C)OC [compound 3] and COC(=O)N[C@H](C(=O)N1CCC[C@H]1c1nc(-c2ccc3cc(-c4ccc(-c5cnc([C@@H]6CCCN6C(=O)[C@@H](NC(=O)OC)[C@@H](C)O)[nH]5)cc4)ccc3c2)c[nH]1)[C@@H](C)O [compound 4] cannot be ordered by EC50: under 1 nM for the first, under 1 nM for the second.

COC(=O)N[C@H](C(=O)N1CCC[C@H]1c1nc(-c2ccc3cc(-c4ccc(-c5cnc([C@@H]6CCCN6C(=O)[C@@H](c6ccccc6)N(C)C)[nH]5)cc4)ccc3c2)c[nH]1)C(C)C [compound 5] and COC(=O)N[C@H](C(=O)N1CCC[C@H]1c1ncc(-c2ccc(-c3ccc4cc(-c5c[nH]c([C@@H]6CCCN6C(=O)[C@@H](c6ccccc6)N(C)C)n5)ccc4c3)cc2)[nH]1)C(C)C [compound 6] cannot be ordered by EC50: under 1 nM for the first, under 1 nM for the second.

COC(=O)N[C@H](C(=O)N1CCC[C@H]1c1ncc(-c2ccc(-c3ccc4cc(-c5c[nH]c([C@@H]6CCCN6C(=O)[C@H](NC(=O)OC)c6ccccc6)n5)ccc4c3)cc2)[nH]1)C(C)C [compound 7] and COC(=O)N[C@H](C(=O)N1CCC[C@H]1c1nc(-c2ccc3cc(-c4ccc(-c5cnc([C@@H]6CCCN6C(=O)[C@H](NC(=O)OC)c6ccccc6)[nH]5)cc4)ccc3c2)c[nH]1)C(C)C [compound 8] cannot be ordered by EC50: under 1 nM for the first, under 1 nM for the second.

COC(=O)N[C@H](C(=O)N1CCC[C@H]1c1nc(-c2ccc3nc(-c4ccc(-c5cnc([C@@H]6CCCN6C(=O)[C@@H](NC(=O)OC)C(C)C)[nH]5)cc4)cnc3c2)c[nH]1)C(C)C [compound 11] and COC(=O)N[C@H](C(=O)N1CCC[C@H]1c1nc(-c2ccc3nc(-c4ccc(-c5cnc([C@@H]6CCCN6C(=O)[C@@H](NC(=O)OC)C(C)C)[nH]5)cc4)ncc3c2)c[nH]1)C(C)C [compound 17] cannot be ordered by EC50: under 1 nM for the first, under 1 nM for the second.

First: COC(=O)N[C@H](C(=O)N1CCC[C@H]1c1ncc(-c2ccc(-c3cnc4ccc(-c5cnc([C@@H]6CCCN6C(=O)[C@@H](NC(=O)OC)C(C)C)[nH]5)cc4n3)cc2)[nH]1)C(C)C [compound 12]
Second: COC(=O)N[C@H](C(=O)N1CCC[C@H]1c1nc(-c2cnc3cc(-c4ccc(-c5cnc([C@@H]6CCCN6C(=O)[C@@H](NC(=O)OC)C(C)C)[nH]5)cc4)ccc3c2)c[nH]1)C(C)C [compound 19]
The EC50 of the first is higher: 1 to 9.9 nM for the first, under 1 nM for the second.

COC(=O)N[C@H](C(=O)N1CCC[C@H]1c1nc(-c2ccc3cc(-c4ccc(-c5cnc([C@@H]6CCCN6C(=O)[C@@H](NC(=O)OC)C(C)C)[nH]5)cn4)ccc3c2)c[nH]1)C(C)C [compound 13] and COC(=O)N[C@H](C(=O)N1CCC[C@H]1c1nc(-c2ccc3cc(-c4ccc(-c5cnc([C@@H]6CCCN6C(=O)[C@@H](NC(=O)OC)C(C)C)[nH]5)cc4)ncc3c2)c[nH]1)C(C)C [compound 22] cannot be ordered by EC50: under 1 nM for the first, under 1 nM for the second.

COC(=O)N[C@H](C(=O)N1CCC[C@H]1c1ncc(-c2ccc(-c3ccc4cc(-c5c[nH]c([C@@H]6CCCN6C(=O)[C@H](NC(=O)N6CC[C@H](O)C6)c6ccccc6)n5)ccc4c3)cc2)[nH]1)C(C)C [compound 15] and COC(=O)N[C@H](C(=O)N1CCC[C@H]1c1nc(-c2ccc3cc(-c4ccc(-c5cnc([C@@H]6CCCN6C(=O)[C@H](NC(=O)N6CC[C@H](O)C6)c6ccccc6)[nH]5)cc4)ccc3c2)c[nH]1)C(C)C [compound 16] cannot be ordered by EC50: under 1 nM for the first, under 1 nM for the second.

COC(=O)N[C@H](C(=O)N1CCC[C@H]1c1ncc(-c2ccc(-c3cccc4c(-c5cnc([C@@H]6CCCN6C(=O)[C@@H](NC(=O)OC)C(C)C)[nH]5)cccc34)cc2)[nH]1)C(C)C [compound 20] and COC(=O)N[C@H](C(=O)N1CCC[C@H]1c1nc(-c2ccc3cc(-c4ccc(-c5cnc([C@@H]6CCCN6C(=O)[C@@H](NC(=O)OC)C(C)C)[nH]5)cc4)cnc3c2)c[nH]1)C(C)C [compound 21] cannot be ordered by EC50: under 1 nM for the first, under 1 nM for the second.

COC(=O)N[C@H](C(=O)N1CCC[C@H]1c1ncc(-c2ccc(-c3ccc4cc(-c5c[nH]c([C@@H]6CCCN6C(=O)[C@H](NC(=O)NC(C)(C)C)c6ccccc6)n5)ccc4c3)cc2)[nH]1)C(C)C [compound 23] and COC(=O)NC(C(=O)N1CCC[C@H]1c1nc(-c2ccc3cc(-c4ccc(-c5cnc([C@@H]6CCCN6C(=O)[C@H](NC(=O)NC(C)(C)C)c6ccccc6)[nH]5)cc4)ccc3c2)c[nH]1)C(C)C (stereo partly drawn) [compound 25] cannot be ordered by EC50: under 1 nM for the first, under 1 nM for the second.

COC(=O)N[C@H](C(=O)N1CCC[C@H]1c1nc(-c2ccc3cc(-c4ccc(-c5cnc([C@@H]6CCCN6C(=O)[C@H](NC(=O)NC6CC6)c6ccccc6)[nH]5)cc4)ccc3c2)c[nH]1)C(C)C [compound 24] and COC(=O)N[C@H](C(=O)N1CCC[C@H]1c1ncc(-c2ccc(-c3ccc4cc(-c5c[nH]c([C@@H]6CCCN6C(=O)[C@H](NC(=O)NC6CC6)c6ccccc6)n5)ccc4c3)cc2)[nH]1)C(C)C [compound 29] cannot be ordered by EC50: under 1 nM for the first, under 1 nM for the second.

COC(=O)N[C@H](C(=O)N1CCC[C@H]1c1nc(-c2ccc3nc(-c4ccc(-c5cnc([C@@H]6CCCN6C(=O)[C@H](NC(=O)OC)c6ccccc6)[nH]5)cc4)ccc3c2)c[nH]1)C(C)C [compound 26] and CNC(=O)N[C@@H](C(=O)N1CCC[C@H]1c1ncc(-c2ccc(-c3ccc4cc(-c5c[nH]c([C@@H]6CCCN6C(=O)[C@@H](NC(=O)OC)C(C)C)n5)ccc4n3)cc2)[nH]1)c1ccccc1 [compound 31] cannot be ordered by EC50: under 1 nM for the first, under 1 nM for the second.

CCNC(=O)N[C@@H](C(=O)N1CCC[C@H]1c1ncc(-c2ccc(-c3ccc4cc(-c5c[nH]c([C@@H]6CCCN6C(=O)[C@@H](NC(=O)OC)C(C)C)n5)ccc4c3)cc2)[nH]1)c1ccccc1 [compound 27] and CCNC(=O)N[C@@H](C(=O)N1CCC[C@H]1c1nc(-c2ccc3cc(-c4ccc(-c5cnc([C@@H]6CCCN6C(=O)[C@@H](NC(=O)OC)C(C)C)[nH]5)cc4)ccc3c2)c[nH]1)c1ccccc1 [compound 28] cannot be ordered by EC50: under 1 nM for the first, under 1 nM for the second.

COC(=O)N[C@H](C(=O)N1CCC[C@H]1c1nc(-c2ccc3nc(-c4ccc(-c5cnc([C@@H]6CCCN6C(=O)[C@H](NC(=O)OC(C)(C)C)c6ccccc6)[nH]5)cc4)ccc3c2)c[nH]1)C(C)C [compound 30] and COC(=O)N[C@H](C(=O)N1CCC[C@H]1c1ncc(-c2ccc(-c3ccc4cc(-c5c[nH]c([C@@H]6CCCN6C(=O)[C@H](NC(=O)OC(C)(C)C)c6ccccc6)n5)ccc4n3)cc2)[nH]1)C(C)C [compound 35] cannot be ordered by EC50: under 1 nM for the first, under 1 nM for the second.

COC(=O)N[C@H](C(=O)N1CCC[C@H]1c1nc(-c2cnc3cc(-c4ccc(-c5cnc([C@@H]6CCCN6C(=O)[C@H](NC(=O)OC)c6ccccc6)[nH]5)cc4)ccc3c2)c[nH]1)C(C)C [compound 32] and CNC(=O)N[C@@H](C(=O)N1CCC[C@H]1c1nc(-c2ccc3nc(-c4ccc(-c5cnc([C@@H]6CCCN6C(=O)[C@@H](NC(=O)OC)C(C)C)[nH]5)cc4)ccc3c2)c[nH]1)c1ccccc1 [compound 36] cannot be ordered by EC50: under 1 nM for the first, under 1 nM for the second.

CCNC(=O)N[C@@H](C(=O)N1CCC[C@H]1c1ncc(-c2ccc(-c3ccc4cc(-c5c[nH]c([C@@H]6CCCN6C(=O)[C@@H](NC(=O)OC)C(C)C)n5)ccc4n3)cc2)[nH]1)c1ccccc1 [compound 33] and CCNC(=O)N[C@@H](C(=O)N1CCC[C@H]1c1nc(-c2ccc3nc(-c4ccc(-c5cnc([C@@H]6CCCN6C(=O)[C@@H](NC(=O)OC)C(C)C)[nH]5)cc4)ccc3c2)c[nH]1)c1ccccc1 [compound 37] cannot be ordered by EC50: under 1 nM for the first, under 1 nM for the second.

COC(=O)N[C@H](C(=O)N1CCC[C@H]1c1nc(-c2ccc3nc(-c4ccc(-c5cnc([C@@H]6CCCN6C(=O)[C@H](NC(=O)NC6CC6)c6ccccc6)[nH]5)cc4)ccc3c2)c[nH]1)C(C)C [compound 34] and COC(=O)N[C@H](C(=O)N1CCC[C@H]1c1ncc(-c2ccc(-c3ccc4cc(-c5c[nH]c([C@@H]6CCCN6C(=O)[C@H](NC(=O)NC6CC6)c6ccccc6)n5)ccc4n3)cc2)[nH]1)C(C)C [compound 38] cannot be ordered by EC50: under 1 nM for the first, under 1 nM for the second.

For COC(=O)N[C@H](C(=O)N1CCC[C@H]1c1ncc(-c2ccc(-c3ccc4cc(-c5c[nH]c([C@@H]6CCCN6C(=O)[C@@H](NC(=O)OC)C6CCOCC6)n5)ccc4n3)cc2)[nH]1)C(C)C [compound 39], the EC50 was under 1 nM.
